From ChEMBL document CHEMBL1201862, “PubChem BioAssay data set” (2004)
Blank lines part the entries; values can stand above or below the molecule they belong to. The source made the active and inactive calls.

Key:
[1] = target: Eukaryotic translation initiation factor 4E (Mus musculus, UniProt P63073); assay: blockers of eIF4G binding by eIF4E – biochemical, TR-FRET, dose response (AID 855); type: functional;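 also: potency for disrupting eIF4E binding to eIF4GI seen as loss of FRET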
[2] = target: T1, Mannose-6-phosphate isomerase (Homo sapiens, UniProt P34949); assay: MPI inhibition at elevated mannose 6-phosphate – biochemical, fluorescence intensity, high mannose 6-phosphate, primary screen (AID 1220)
T1 sequence (P34949 whole entry): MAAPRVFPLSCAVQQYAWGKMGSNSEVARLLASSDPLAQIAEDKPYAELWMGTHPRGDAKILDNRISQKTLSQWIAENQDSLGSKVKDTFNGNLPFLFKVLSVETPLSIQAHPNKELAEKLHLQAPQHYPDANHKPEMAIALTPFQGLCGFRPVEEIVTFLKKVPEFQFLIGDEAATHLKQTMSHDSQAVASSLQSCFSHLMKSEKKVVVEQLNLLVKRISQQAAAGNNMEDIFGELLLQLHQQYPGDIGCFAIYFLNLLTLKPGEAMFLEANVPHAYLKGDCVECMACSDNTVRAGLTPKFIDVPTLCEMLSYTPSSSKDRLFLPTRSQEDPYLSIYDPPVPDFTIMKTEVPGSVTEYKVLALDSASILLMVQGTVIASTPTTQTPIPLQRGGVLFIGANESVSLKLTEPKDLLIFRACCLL

[3] = blockers of HIV-1 envelope-mediated cell-cell fusion – cherry-pick, dose response (AID 652057); type: functional, cell-based
[4] = blockers of HIV-1 ZM109 envelope-driven cell-cell fusion – HeLa effector, CEM target cells, luciferase, cherry-pick, dose response (AID 652058); type: functional, cell-based;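 also: luciferase signal from HIV-1 Env mediated cell-cell fusion of effector and target cells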
[5] = HIV-1 AD8 envelope cell-cell fusion blockers – cherry-pick, dose response (AID 652062); type: functional, cell-based;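 also: luciferase signal from cell-cell fusion driven by HIV-1 clade B AD8 Env; potency is for inhibitors of fusion seen as a drop in luminescence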
[6] = HEK-293T viability loss after treatment – luminescence, T-cell screen hits, cytotoxicity control for TCR NF-kB inhibitor project, dose response (AID 489026); type: functional, cell-based;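 also: cells exposed to compound about 14 hours before the viability readout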
[7] = target: T2, High affinity choline transporter 1 (Homo sapiens, UniProt Q9GZV3); assay: human choline transporter blockers, potency – cell-based, 5-point CRC, membrane potential dye, dose response (AID 504840); type: functional
T2 sequence (Q9GZV3 whole entry): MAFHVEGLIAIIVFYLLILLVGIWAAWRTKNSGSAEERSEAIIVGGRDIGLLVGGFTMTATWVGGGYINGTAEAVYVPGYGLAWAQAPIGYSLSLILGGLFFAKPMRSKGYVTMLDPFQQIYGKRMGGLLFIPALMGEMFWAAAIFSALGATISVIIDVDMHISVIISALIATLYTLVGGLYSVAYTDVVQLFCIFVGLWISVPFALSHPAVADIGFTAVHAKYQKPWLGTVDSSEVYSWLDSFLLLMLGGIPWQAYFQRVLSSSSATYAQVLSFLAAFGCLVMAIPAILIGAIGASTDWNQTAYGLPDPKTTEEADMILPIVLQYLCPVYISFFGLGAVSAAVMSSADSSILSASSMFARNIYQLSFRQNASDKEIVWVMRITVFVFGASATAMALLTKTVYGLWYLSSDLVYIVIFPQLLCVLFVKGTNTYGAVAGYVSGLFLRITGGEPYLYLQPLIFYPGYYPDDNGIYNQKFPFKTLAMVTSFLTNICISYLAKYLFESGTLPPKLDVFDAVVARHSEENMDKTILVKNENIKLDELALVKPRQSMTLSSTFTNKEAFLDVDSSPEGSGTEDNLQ

[8] = off-target signal loss in HeLa-CEM21 co-culture – HeLa F-luc CTL cells, cherry-picked, counter-screen for HIV-1 Env fusion inhibitor project, dose response (AID 652040); type: functional, cell-based;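 also: potency for signal decrease marking cytotoxic or nonspecific inhibition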
[9] = target: T3, Corticotropin-releasing factor receptor 2/Corticotropin-releasing factor-binding protein (Homo sapiens, UniProt P24387+Q13324); assay: Dose Response confirmation of uHTS hits for small molecule antagonists of the CRF-binding protein and CRF-R2 receptor complex.; type: functional; details: read-out: IC50_Mean
T3 sequence (Q13324 whole entry): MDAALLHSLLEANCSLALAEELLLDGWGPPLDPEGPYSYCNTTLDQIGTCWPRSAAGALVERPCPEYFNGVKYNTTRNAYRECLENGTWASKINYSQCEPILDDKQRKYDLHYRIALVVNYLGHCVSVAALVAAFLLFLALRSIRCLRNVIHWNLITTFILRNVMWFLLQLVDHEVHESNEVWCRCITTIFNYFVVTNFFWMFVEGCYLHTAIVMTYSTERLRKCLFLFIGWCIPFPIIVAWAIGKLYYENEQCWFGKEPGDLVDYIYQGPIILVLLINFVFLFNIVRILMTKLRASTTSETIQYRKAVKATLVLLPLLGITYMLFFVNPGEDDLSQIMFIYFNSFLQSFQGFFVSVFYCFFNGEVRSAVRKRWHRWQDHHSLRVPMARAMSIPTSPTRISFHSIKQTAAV
T3 sequence (P24387 whole entry): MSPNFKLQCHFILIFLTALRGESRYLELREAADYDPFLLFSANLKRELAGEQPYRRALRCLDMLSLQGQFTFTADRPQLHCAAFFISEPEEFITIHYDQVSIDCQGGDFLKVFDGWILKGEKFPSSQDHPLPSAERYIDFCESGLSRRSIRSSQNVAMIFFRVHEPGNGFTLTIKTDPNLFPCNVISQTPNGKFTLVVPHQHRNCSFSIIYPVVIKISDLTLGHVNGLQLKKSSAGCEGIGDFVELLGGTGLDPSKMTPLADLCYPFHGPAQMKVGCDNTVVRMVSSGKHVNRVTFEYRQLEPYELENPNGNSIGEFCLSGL

[10] = target: T3, Corticotropin-releasing factor receptor 2/Corticotropin-releasing factor-binding protein; assay: activators of CRF receptor 2 with binding protein – uHTS hits, confirmation (AID 602473); type: functional; details: read-out: EC50_Mean
[11] = blockers of CRF-binding protein–CRF-R2 complex – cell-based, uHTS hits, 384-well, dose response (AID 651639); type: functional, Homo sapiens; details: read-out: IC50_Mean
[12] = viability of uninfected HEp-2 cells – cell-based, HTS, cytotoxicity control for RSV inhibitor project, dose response (AID 2410); type: functional; details: human respiratory syncytial virus
Prothrombin = Prothrombin (Homo sapiens, UniProt P00734); assay: Thrombin 1536 HTS Dose Response Confirmation. [Related pubchem assays: 1046 (Thrombin 1536 HTS; hits were confirmed in this assay)]; type: functional
Cytochrome P450 2D6 = Cytochrome P450 2D6 (Homo sapiens, UniProt P10635);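 also: CYP2D6 member of a cytochrome P450 panel assay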
[13] = target: T4, DNA repair protein RAD52 homolog (Homo sapiens, UniProt P43351); type: functional, biochemical
T4 sequence (P43351 whole entry): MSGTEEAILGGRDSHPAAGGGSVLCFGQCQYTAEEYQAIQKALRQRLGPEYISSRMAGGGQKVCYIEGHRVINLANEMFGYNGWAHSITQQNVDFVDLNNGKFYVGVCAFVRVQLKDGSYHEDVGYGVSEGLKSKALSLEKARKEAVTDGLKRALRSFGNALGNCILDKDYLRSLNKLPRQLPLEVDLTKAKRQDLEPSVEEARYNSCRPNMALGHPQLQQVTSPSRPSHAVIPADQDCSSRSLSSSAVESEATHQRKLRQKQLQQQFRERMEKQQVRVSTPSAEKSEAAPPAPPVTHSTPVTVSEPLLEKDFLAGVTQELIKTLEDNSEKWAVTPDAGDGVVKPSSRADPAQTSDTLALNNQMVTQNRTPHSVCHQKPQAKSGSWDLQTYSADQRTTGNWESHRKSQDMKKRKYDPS

[14] = target: G-protein coupled receptor 55 (Homo sapiens, UniProt Q9Y2T6); assay: selective activators of receptor GPR55 – imaging, U2OS cells, beta-arrestin-GFP redistribution, primary screen (AID 1961); type: functional
[15] = target: DNA dC->dU-editing enzyme APOBEC-3G (Homo sapiens, UniProt Q9HC16); assay: Dose Response confirmation of small molecule APOBEC3G DNA Deaminase Inhibitors via a fluorescence-based single-stranded DNA deaminase assay. [Related pubchem assays (depositor defined):AID493012, AID493028]; type: functional
[16] = Trypanosoma cruzi growth suppression in host cells – NIH3T3 host cells, beta-gal luminescence, confirmation (AID 2044); type: functional, cell-based;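 also: intracellular parasites grown in NIH/3T3 mouse fibroblasts as host cells; luminescent beta-galactosidase reporter signal from transgenic T. cruzi replicating inside host cells; inhibitors lower the luminescence signal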
[17] = NIH3T3 cell viability loss – ATP luminescence, mouse fibroblasts, counter-screen, dose response (AID 2010); type: functional, cell-based;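 also: cells exposed to compound for about 90 hours before reading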
[18] = target: Peroxisome proliferator-activated receptor gamma/Nuclear receptor coactivator 1 (Homo sapiens, UniProt P37231); assay: (§1) TR-FRET dose response biochemical High Throughput Screening assay for agonists of the steroid receptor coactivator 1 (SRC-1) recruitment by the peroxisome proliferator-activated receptor gamma (PPAR gamma): non-selective agonists. [Related pubchem assays (depositor defined):AID1300, AID1808, AID504735, AID631]; type: protein assay
[19] = target: Peroxisome proliferator-activated receptor gamma/Nuclear receptor coactivator 3 (Homo sapiens, UniProt P37231); assay: as §1, with “3 (SRC-3)” for “1 (SRC-1)”, “assays: 1301 (Confirmation screen.), 1048 (Primary screen.)]” for “assays (depositor defined):AID1300, AID1808, AID504735, AID631]”; type: functional
[20] = target: Peroxisome proliferator-activated receptor gamma/Nuclear receptor coactivator 2 (Homo sapiens, UniProt P37231); assay: TR-FRET dose response biochemical High Throughput Screening assay for agonists of the steroid receptor coactivator 2 (SRC-2) recruitment by the peroxisome proliferator-activated receptor gamma (PPAR gamma): non-selective agonists. [Related pubchem assays: 1297, 1032 ]; type: functional
Sequence of Peroxisome proliferator-activated receptor gamma/Nuclear receptor coactivator 2 (P37231 whole entry): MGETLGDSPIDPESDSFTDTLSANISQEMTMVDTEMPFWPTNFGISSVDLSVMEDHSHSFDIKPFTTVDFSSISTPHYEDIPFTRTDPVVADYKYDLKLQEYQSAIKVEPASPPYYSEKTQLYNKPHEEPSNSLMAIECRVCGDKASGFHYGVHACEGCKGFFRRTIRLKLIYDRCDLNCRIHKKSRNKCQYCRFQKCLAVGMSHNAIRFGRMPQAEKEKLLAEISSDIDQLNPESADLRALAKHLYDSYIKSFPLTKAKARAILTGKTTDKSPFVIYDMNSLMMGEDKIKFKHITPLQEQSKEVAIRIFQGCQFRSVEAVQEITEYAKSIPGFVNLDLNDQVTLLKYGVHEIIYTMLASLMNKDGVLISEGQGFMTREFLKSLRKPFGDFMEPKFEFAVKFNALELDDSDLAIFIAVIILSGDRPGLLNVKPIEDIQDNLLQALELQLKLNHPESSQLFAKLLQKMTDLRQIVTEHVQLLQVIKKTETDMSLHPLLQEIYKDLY
Sequence of Peroxisome proliferator-activated receptor gamma/Nuclear receptor coactivator 2 (Q15596 whole entry, further chain): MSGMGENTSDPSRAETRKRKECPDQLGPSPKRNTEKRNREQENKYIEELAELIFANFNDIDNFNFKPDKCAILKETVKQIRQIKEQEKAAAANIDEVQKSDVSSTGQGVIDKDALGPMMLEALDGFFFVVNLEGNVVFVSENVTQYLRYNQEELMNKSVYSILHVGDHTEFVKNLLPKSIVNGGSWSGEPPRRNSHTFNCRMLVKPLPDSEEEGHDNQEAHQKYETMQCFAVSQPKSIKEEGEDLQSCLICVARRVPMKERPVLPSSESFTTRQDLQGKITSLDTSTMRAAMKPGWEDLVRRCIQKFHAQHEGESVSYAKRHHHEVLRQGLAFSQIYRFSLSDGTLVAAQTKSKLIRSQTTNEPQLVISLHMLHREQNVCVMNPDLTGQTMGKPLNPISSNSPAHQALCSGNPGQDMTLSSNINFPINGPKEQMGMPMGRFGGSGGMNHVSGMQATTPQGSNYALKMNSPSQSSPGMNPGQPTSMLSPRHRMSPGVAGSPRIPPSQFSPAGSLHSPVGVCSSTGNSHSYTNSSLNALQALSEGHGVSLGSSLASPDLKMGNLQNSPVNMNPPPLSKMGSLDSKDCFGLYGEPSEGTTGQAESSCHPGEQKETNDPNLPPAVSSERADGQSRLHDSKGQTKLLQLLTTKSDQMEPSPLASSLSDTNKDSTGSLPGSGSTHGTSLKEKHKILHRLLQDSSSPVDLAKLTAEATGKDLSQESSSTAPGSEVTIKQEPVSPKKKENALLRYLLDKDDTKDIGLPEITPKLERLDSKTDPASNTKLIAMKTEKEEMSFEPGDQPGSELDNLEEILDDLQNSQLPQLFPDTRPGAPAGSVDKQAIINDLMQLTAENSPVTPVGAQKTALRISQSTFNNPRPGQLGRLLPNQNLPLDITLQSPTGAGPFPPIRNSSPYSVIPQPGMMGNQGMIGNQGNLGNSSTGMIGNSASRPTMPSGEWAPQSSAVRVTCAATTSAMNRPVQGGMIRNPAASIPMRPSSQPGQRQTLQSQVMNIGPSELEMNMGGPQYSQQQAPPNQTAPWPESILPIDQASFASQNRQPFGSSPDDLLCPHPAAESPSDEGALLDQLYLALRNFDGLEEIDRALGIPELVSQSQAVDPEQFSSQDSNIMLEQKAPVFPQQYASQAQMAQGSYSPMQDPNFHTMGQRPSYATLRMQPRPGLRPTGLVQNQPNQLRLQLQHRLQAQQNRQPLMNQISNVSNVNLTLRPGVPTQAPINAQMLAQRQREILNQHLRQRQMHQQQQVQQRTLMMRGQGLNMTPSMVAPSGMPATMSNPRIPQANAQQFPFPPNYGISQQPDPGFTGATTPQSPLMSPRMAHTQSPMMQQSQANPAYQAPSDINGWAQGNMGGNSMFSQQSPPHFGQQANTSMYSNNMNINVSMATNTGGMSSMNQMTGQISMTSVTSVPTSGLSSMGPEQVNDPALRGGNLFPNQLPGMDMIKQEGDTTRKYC

Sequence of Eukaryotic translation initiation factor 4E (P63073 whole entry): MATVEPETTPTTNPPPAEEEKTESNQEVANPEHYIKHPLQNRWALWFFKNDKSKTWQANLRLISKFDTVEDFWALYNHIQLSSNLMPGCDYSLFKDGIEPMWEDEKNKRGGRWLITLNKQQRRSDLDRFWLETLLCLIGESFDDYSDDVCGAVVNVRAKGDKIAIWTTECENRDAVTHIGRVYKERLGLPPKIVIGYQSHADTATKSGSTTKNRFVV
Sequence of DNA dC->dU-editing enzyme APOBEC-3G (Q9HC16 whole entry): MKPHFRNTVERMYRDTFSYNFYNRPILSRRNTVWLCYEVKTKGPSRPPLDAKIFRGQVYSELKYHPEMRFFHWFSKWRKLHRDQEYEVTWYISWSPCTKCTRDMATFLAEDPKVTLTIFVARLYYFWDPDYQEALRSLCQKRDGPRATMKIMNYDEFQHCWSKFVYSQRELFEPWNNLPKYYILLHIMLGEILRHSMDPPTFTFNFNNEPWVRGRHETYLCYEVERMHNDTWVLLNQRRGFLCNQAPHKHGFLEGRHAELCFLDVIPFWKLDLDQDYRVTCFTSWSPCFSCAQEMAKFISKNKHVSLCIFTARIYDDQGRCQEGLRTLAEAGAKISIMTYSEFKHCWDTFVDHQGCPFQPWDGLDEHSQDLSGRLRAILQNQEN
Sequence of Peroxisome proliferator-activated receptor gamma/Nuclear receptor coactivator 1 (P37231 whole entry): as the sequence (P37231 whole entry) above
Sequence of Peroxisome proliferator-activated receptor gamma/Nuclear receptor coactivator 1 (Q15788 whole entry, further chain): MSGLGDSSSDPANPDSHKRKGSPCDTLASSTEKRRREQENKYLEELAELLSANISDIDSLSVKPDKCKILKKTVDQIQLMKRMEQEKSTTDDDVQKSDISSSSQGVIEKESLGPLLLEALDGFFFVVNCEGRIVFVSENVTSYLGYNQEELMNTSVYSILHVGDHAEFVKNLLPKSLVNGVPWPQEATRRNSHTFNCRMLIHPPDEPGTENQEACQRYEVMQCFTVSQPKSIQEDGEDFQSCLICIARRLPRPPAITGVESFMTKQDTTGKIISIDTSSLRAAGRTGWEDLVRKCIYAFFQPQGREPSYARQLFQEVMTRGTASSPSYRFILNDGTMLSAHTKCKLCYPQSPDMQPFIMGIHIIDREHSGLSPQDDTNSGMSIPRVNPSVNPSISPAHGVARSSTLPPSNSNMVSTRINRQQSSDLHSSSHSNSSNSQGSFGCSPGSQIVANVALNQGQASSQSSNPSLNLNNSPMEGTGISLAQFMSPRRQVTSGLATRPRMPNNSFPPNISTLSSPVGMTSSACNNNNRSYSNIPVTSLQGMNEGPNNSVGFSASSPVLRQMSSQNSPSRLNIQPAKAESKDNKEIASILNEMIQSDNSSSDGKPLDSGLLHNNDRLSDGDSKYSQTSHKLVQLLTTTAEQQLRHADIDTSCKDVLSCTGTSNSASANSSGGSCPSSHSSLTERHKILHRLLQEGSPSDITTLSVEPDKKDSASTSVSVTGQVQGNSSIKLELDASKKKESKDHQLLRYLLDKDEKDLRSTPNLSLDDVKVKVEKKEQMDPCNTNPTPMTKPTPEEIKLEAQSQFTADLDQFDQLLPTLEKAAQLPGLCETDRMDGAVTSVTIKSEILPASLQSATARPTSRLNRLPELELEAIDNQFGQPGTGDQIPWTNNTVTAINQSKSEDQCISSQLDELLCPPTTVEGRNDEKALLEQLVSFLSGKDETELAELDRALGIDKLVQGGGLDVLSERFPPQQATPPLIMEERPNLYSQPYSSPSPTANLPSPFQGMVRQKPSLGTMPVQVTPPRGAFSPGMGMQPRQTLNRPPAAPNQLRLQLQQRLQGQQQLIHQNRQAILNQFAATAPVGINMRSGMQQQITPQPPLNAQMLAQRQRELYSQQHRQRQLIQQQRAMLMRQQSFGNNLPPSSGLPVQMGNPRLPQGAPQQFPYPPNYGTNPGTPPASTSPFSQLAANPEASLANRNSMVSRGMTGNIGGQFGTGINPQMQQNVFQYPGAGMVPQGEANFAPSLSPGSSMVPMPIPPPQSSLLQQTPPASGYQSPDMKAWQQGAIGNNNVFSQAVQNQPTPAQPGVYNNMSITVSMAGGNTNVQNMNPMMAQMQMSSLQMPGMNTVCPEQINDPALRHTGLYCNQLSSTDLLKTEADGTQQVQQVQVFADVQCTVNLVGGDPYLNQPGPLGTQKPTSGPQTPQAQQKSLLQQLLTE
Sequence of G-protein coupled receptor 55 (Q9Y2T6 whole entry): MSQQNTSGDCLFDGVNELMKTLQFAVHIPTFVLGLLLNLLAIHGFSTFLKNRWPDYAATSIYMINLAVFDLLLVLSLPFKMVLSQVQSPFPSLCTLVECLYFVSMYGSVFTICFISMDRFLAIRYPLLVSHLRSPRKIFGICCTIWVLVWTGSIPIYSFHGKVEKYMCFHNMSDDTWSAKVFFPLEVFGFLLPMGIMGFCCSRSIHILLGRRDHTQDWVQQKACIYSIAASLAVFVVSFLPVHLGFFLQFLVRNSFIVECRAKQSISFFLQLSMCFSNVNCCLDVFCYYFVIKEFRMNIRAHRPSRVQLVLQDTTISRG

SMILES: COc1ccc(S(=O)(=O)Nc2ccc3c(c2)CC(=O)N([C@@H](C)CO)C[C@H](C)[C@H](CN(C)S(=O)(=O)c2ccccc2)O3)cc1
- AC50 [3]: 2.12 µM (active)
- AC50 [4]: 1.82 µM (active)
- AC50 [5]: 11.6 µM (active)

SMILES: CCOC(=O)c1[nH]c(C)c(C(=O)Nc2ccccc2C)c1C
- IC50 [6]: > 80 µM (inactive)

SMILES: COc1ccc(OC(=O)N(C)C[C@@H]2OCc3ccccc3-c3c(n(C)c4ccccc34)C(=O)N([C@H](C)CO)C[C@@H]2C)cc1
- AC50 [3]: 1.62 µM (active)
- AC50 [4]: 1.44 µM (active)
- AC50 [8]: 2.43 µM (active)
- AC50 [5]: 3.25 µM (active)

SMILES: CC(=O)Oc1cc(OC(C)=O)c2c(C)cc(=O)oc2c1
- IC50 (cells): 25.3 µM (active)

SMILES: COc1cc(C(C(=O)NC2CCCCC2)N(C(=O)c2snc(C(N)=O)c2N)c2ccc(C)cc2)ccc1O (centres undefined)
- CC50 [12]: > 50 µM (active)
- IC50 (cells): 47 µM (active)

SMILES: COc1ccc(/C=C/C(=O)NCc2cn(C)nc2C)cc1COc1ccc(Cl)cc1Br
- IC50 [9]: 6.89 µM (active)
- EC50 [10]: > 53 µM (inactive)
- IC50 [11]: > 20 µM (inactive)

SMILES: COc1ccc2c(c1)OC(O)(C(F)(F)C(F)F)CC2=O (centres undefined)
- IC50 [7]: 13.2 µM (active)
- EC50 [10]: 15.6 µM (active)

SMILES: CCn1c(SCc2c(Cl)cccc2Cl)nnc1-c1nn(-c2ccccc2)ccc1=O
- CC50 [12]: 49.8 µM (active)
- IC50 (cells): 33.7 µM (active)

SMILES: N=C(N)Nc1ccc(/C=C2\C=Cc3ccccc32)cc1
- AC50 [13]: 13.2 µM (active)

SMILES: CN(CC(=O)NCCc1ccc(S(N)(=O)=O)cc1)CC(=O)Nc1ccc(Cl)c(C(F)(F)F)c1
- AC50 [3]: 5.63 µM (active)
- AC50 [4]: 2.95 µM (active)
- AC50 [8]: 7.96 µM (active)
- AC50 [5]: 11.9 µM (active)

SMILES: CCN(CC)C(=S)SC1=CCS(=O)(=O)C1
- IC50 [2]: 24.5 µM (active)

SMILES: CC(C)(C)C1=Nn2c(nnc2-c2n[nH]c3c2CCC3)SC1
- IC50 [2]: > 50 µM (not active)
- IC50 [15]: 23.3 µM (active)

SMILES: COc1ccc(C2=Nn3c(nnc3-c3ccccc3OC)SC2)cc1OC1CCCC1
- IC50 [6]: 35.9 µM (inactive)

SMILES: O=C(Nc1nc2ccc(S(=O)(=O)N3CCCC3)cc2s1)c1ccccn1
- EC50 [16]: 2.15 µM (active)
- EC50 [17]: 5.13 µM (active)
- IC50 [9]: 28.6 µM (active)
- EC50 [10]: > 53 µM (inactive)
- IC50 [11]: > 20 µM (inactive)

SMILES: Cc1ccc2nc(NC(=N)N)nc(C)c2c1
- AC50 [13]: 12.6 µM (active)

SMILES: CCc1ccc(-n2c(C)nnc2S)cc1
- IC50 [15]: 14.6 µM (active)

Further lines, results first:

- IC50 [1]: > 64 µM (inactive)
SMILES: CCN(CC)S(=O)(=O)c1cc(F)ccc1OC

- IC50 [2]: > 50 µM (not active)
SMILES: N#Cc1c2ccc(OCC(N)=O)cc2n2ccccc12

- IC50 [7]: 17.4 µM (active)
SMILES: CSc1ccc(S(=O)(=O)N2CCC(C(=O)N3CCc4ccccc4C3)CC2)cc1

- IC50 [9]: 39 µM (active)
- EC50 [10]: > 53 µM (inactive)
- IC50 [11]: 10.6 µM (active)
SMILES: COCCNc1nc2c(S(=O)(=O)c3cc(C)ccc3C)nnn2c2ccccc12

- IC50 (Prothrombin): > 50 µM (not active)
- IC50 [7]: 14.5 µM (active)
- AC50 (Cytochrome P450 2D6): 20 µM (inconclusive)
SMILES: CCOC(=O)c1ccccc1Oc1c(F)c(F)nc(NCCO)c1F

- EC50 [14]: 0.523 µM (active)
SMILES: CCOC(=O)c1sc2cc([N+](=O)[O-])cc(SCC(C)C)c2c1N

- EC50 [18]: 94.8 µM (inactive)
- EC50 [19]: > 79.4 µM (not active)
- EC50 [20]: 26 µM (not active)
SMILES: O=C(O)Cc1sc(-c2ccccc2)nc1-c1cccs1

- EC50 [18]: > 79.4 µM (inactive)
- EC50 [19]: > 79.4 µM (not active)
- EC50 [20]: > 79.4 µM (not active)
SMILES: CCOC(=O)C1CCN(C(=O)CSc2cc(=O)n(CC)c3ccccc23)CC1

- IC50 [9]: 13.9 µM (active)
- EC50 [10]: > 53 µM (inactive)
- IC50 [11]: 8.13 µM (active)
SMILES: CC1=C(c2ccccc2)C(O)(c2ccccc2)C(C)C1=O (centres undefined)

- IC50 [1]: > 64 µM (inactive)
SMILES: COC(=O)c1ccccc1NC(=O)COC(=O)c1ccc(C)c(NC(=O)c2ccco2)c1
